Test results published in patent US20230148599A1, “FUNGICIDAL MIXTURES CONTAINING PYRAZOLE DERIVATIVES” (FMC Corporation, priority 2020, published 2023).

What was measured:
Type in all cases: in vivo
Alternaria solani [1] = test: Test F1 (comparative): tomato early blight, tomato seedlings; details: Rate 10 ppm, 100 = 100% disease control
Text: (§1) General protocol for preparing test suspensions for Tests A1-F1: the test compounds were first dissolved in acetone in an amount equal to 3% of the final volume and then suspended at the desired concentration (in ppm) in acetone and purified water (50/50 mix by volume) containing 250 ppm of the surfactant PEG400 (polyhydric alcohol esters). The resulting test suspensions were then used in Tests A1-F1.
(§2) The test suspension was sprayed to the point of run-off on tomato seedlings. The following day the seedlings were inoculated with a spore suspension of Alternaria solani (the causal agent of tomato early blight) and incubated in a saturated atmosphere at 27° C. for 48 h, and then moved to a growth chamber at 20° C. for 3 days, after which time visual disease ratings were made.
(§3) A rating of 100 indicates 100% disease control and a rating of 0 indicates no disease control (relative to the controls).

[2] = system: Puccinia recondita f. sp. tritici; test: Test B1 (comparative): wheat leaf rust, wheat seedlings; details: 100 = 100% disease control
Text: as §1
The test solution was sprayed to the point of run-off on wheat seedlings. The following day the seedlings were inoculated with a spore suspension of Puccinia recondita f. sp. tritici (the causal agent of wheat leaf rust) and incubated in a saturated atmosphere at 20° C. for 24 h, and then moved to a growth chamber at 20° C. for 7 days, after which time disease ratings were made.
as §3

Botrytis cinerea [3] = test: Test E1 (comparative): tomato Botrytis, tomato seedlings; details: 100 = 100% disease control
Text: as §1
as §2, with “Botrytis cinerea” for “Alternaria solani”, “Botrytis)” for “early blight)”, “20°” for “27°”, “24°” for “20°”
as §3

Septoria tritici [4] = test: Test A: wheat leaf blotch, preventive spray on wheat seedlings; details: Zymoseptoria tritici, 456 h, 100 = 100% disease control, 0 = no control, read-out: Test A disease control rating
Outline: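 Preventive test: one day after spraying seedlings to run-off (concentrations in ppm; acetone/water, 250 ppm PEG400), Septoria tritici spores applied. Scored after 48 h humid incubation at 24 °C plus 17 days at 20 °C, as percent disease control versus untreated controls (100 = full control).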

[5] = system: Blumeria graminis f. sp. tritici; test: Test C1 (comparative): wheat powdery mildew, wheat seedlings; details: 100 = 100% disease control
Text: as §1
The test suspension was sprayed to the point of run-off on wheat seedlings. The following day the seedlings were inoculated with a spore dust of Blumeria graminis f. sp. tritici, (also known as Erysiphe graminis f. sp. tritici, the causal agent of wheat powdery mildew) and incubated in a growth chamber at 20° C. for 8 days, after which time visual disease ratings were made.
as §3

Botrytis cinerea [6] = test: Test E: tomato Botrytis, preventive spray on tomato seedlings; details: 120 h, 100 = 100% disease control, 0 = no control, read-out: Test E disease control rating
Outline: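 Preventive test: seedlings sprayed to run-off with compound in acetone/water (50/50) plus 250 ppm PEG400, inoculated one day later with B. cinerea spores. Held 48 h saturated at 20° C, then 3 days at 24° C; disease control scored visually from 0 to 100 versus controls.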

Alternaria solani [7] = test: Test F: tomato early blight, preventive spray on tomato seedlings; details: 120 h, 100 = 100% disease control, 0 = no control, read-out: Test F disease control rating
Outline: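 Preventive test: one day after the compound spray, seedlings were inoculated with A. solani, incubated saturated at 27 °C for 48 h, then kept at 20 °C for 3 days. Test suspensions contained acetone/water 50/50 with 250 ppm PEG400 surfactant. Visual ratings run from 0 (no control) to 100 (full control).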

Phakopsora pachyrhizi = test: Test D: Asian soybean rust, preventive spray on soybean seedlings; details: 216 h, 100 = 100% disease control, 0 = no control, read-out: Test D disease control rating
Outline: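 Compounds in acetone/water (50/50) with 250 ppm PEG400, dosed in ppm, sprayed to run-off on soybean seedlings; inoculated with P. pachyrhizi spores next day. Held 24 h at 22 °C in saturated air, then 8 days at 22 °C; visual rating of disease control, 0–100, relative to untreated controls.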

[8] = system: Puccinia recondita f. sp. tritici; test: Test B: wheat leaf rust, preventive spray on wheat seedlings; details: 192 h, 100 = 100% disease control, 0 = no control, read-out: Test B disease control rating
Outline: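 Preventive test: compound in acetone/water 50/50 with 250 ppm PEG400 was sprayed onto wheat seedlings one day before inoculation with leaf rust spores. After 24 h in saturated air and 7 days in a growth chamber, both at 20 °C, disease control was scored from 0 to 100 against controls.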

Septoria tritici [9] = test: Test A1 (comparative): wheat leaf blotch, wheat seedlings; details: 100 = 100% disease control, 0 = no control
Text: as §1
The test solution was sprayed to the point of run-off on wheat seedlings. The following day the seedlings were inoculated with a spore suspension of Septoria tritici (the causal agent of wheat leaf blotch) and incubated in a saturated atmosphere at 24° C. for 48 h, and then moved to a growth chamber at 20° C. for 17 days, after which time disease ratings were made.
as §3

Cc1nn(C)c(Nc2c(F)cccc2[N+](=O)[O-])c1-c1ccc(F)cc1Cl [Compound 112, 4-(2-chloro-4-fluorophenyl)-N-(2-fluoro-6-nitrophenyl)-1,3-dimethyl-1H-pyrazol-5-amine]
Test F1 disease control rating (Alternaria solani [1]): 99% | Test B1 disease control rating ([2]; Rate 10 ppm): 86% | Test B1 disease control rating ([2]; Rate 50 ppm): 100% | Test E1 disease control rating (Botrytis cinerea [3]; Rate 10 ppm): 99% | Test E1 disease control rating (Botrytis cinerea [3]; Rate 50 ppm): 99% | pest or weed control at 10 ppm (Septoria tritici [4]; 10 ppm): 72% | pest or weed control at 50 ppm (Septoria tritici [4]; 50 ppm): 88% | Test C1 disease control rating ([5]; Rate 10 ppm): 97% | Test C1 disease control rating ([5]; Rate 50 ppm): 98% | pest or weed control at 10 ppm (Botrytis cinerea [6]; 10 ppm): 100% | pest or weed control at 50 ppm (Botrytis cinerea [6]; 50 ppm): 100% | pest or weed control at 10 ppm (Alternaria solani [7]; 10 ppm): 98% | pest or weed control at 50 ppm (Alternaria solani [7]; 50 ppm): 100% | pest or weed control at 10 ppm (Phakopsora pachyrhizi; 10 ppm): 52% | pest or weed control at 50 ppm (Phakopsora pachyrhizi; 50 ppm): 99% | pest or weed control at 10 ppm ([8]; 10 ppm): 100% | pest or weed control at 50 ppm ([8]; 50 ppm): 100% | Test A1 disease control rating (Septoria tritici [9]; Rate 10 ppm): 81% | Test A1 disease control rating (Septoria tritici [9]; Rate 50 ppm): 100%
